Test systems include M14 melanoma; OVCAR-5 ovarian; COLO 205 colon; DU-145 prostate; NCI-H226 lung; MOLT-4 leukemia; HL-60(TB) leukemia; SK-MEL-28 melanoma.
Common to all, as to test: growth of human tumour cells (NCI), 48 h

Values joined by “and” are separate entries in the source; they are usually repeats but may differ in a detail not shown here. Identical values can stand only once.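 Interpolation was linear, between the two tested concentrations surrounding the appropriate level; five concentrations were tested over 48 hours in 96-well plates. The concentration for 50% growth inhibition is given as GI50. TGI: total growth inhibition.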

Consider `COc1cc2c(cc1Cc1cccc(Cl)c1F)c(=O)c(C(=O)O)cn2[C@@H](CO)C(C)C`, for which the GI50 in the assay with M14 melanoma is 3.65 µM; with OVCAR-5 ovarian, 4.28 µM; in the assay with COLO 205 colon, 2.64 µM; with DU-145 prostate, 5.62 µM; in the assay with NCI-H226 lung, 5.68 µM; in the assay with MOLT-4 leukemia, 4.67 µM. Moreover, the GI50 in the assay on HL-60(TB) leukemia is 2.81 µM; with SK-MEL-28 melanoma it was 6.63 µM. Further, the TGI in the assay on M14 melanoma is 15 µM; in the assay with OVCAR-5 ovarian, 15.4 µM; in the assay with COLO 205 colon, 6.29 µM; in the assay with DU-145 prostate it was 18.8 µM; with NCI-H226 lung, 23.6 µM; with MOLT-4 leukemia it was 18.5 µM. For the same compound, the TGI stood at 6.95 µM in the assay with HL-60(TB) leukemia and 21.9 µM with SK-MEL-28 melanoma.

Turning to `N/C(=N/N=C/c1ccccc1)N/N=C\c1ccccc1`, the GI50 in the assay with M14 melanoma was 3.4 µM; in the assay with OVCAR-5 ovarian, 19.4 µM; in the assay on COLO 205 colon, 3.66 µM; in the assay on DU-145 prostate, 5.54 µM; in the assay on NCI-H226 lung, 12.3 µM; with MOLT-4 leukemia, 4.39 µM. The GI50 in the assay on HL-60(TB) leukemia is 3.9 µM; in the assay on SK-MEL-28 melanoma, 10.7 µM. Moreover, the TGI in the assay with M14 melanoma is 29.8 µM; in the assay with OVCAR-5 ovarian, more than 100 µM; in the assay on COLO 205 colon, 14.7 µM; in the assay with DU-145 prostate, 92.7 µM; in the assay on NCI-H226 lung, more than 100 µM; in the assay with MOLT-4 leukemia, 47.3 µM. In addition, the figures for the TGI with HL-60(TB) leukemia and in the assay on SK-MEL-28 melanoma were 23 µM and 33.3 µM, respectively.

`CC(=O)Nc1c(I)c(NC(C)=O)c(I)c(C(=O)O)c1I`: the GI50 in the assay on M14 melanoma, in the assay on OVCAR-5 ovarian, with COLO 205 colon, with DU-145 prostate, with NCI-H226 lung and in the assay with MOLT-4 leukemia was more than 100 µM throughout. The GI50 in the assay with HL-60(TB) leukemia and with SK-MEL-28 melanoma was more than 100 µM in each case. The TGI with M14 melanoma, in the assay on OVCAR-5 ovarian, in the assay on COLO 205 colon, in the assay on DU-145 prostate, with NCI-H226 lung and in the assay with MOLT-4 leukemia was more than 100 µM each time. In addition, the TGI in the assay on HL-60(TB) leukemia and in the assay with SK-MEL-28 melanoma was more than 100 µM in each case.

Turning to `COc1cccc(/C=N/NC(=O)c2ccccc2N2CCCC2)c1O`, the GI50 was 3.08 µM with M14 melanoma; 9.72 µM in the assay with OVCAR-5 ovarian; 3.03 µM in the assay with COLO 205 colon; 8.96 µM in the assay on DU-145 prostate; 1.84 µM in the assay on NCI-H226 lung; 1.52 µM with MOLT-4 leukemia. In addition, in the assay on SK-MEL-28 melanoma, the GI50 is 5.27 µM. Further, the TGI in the assay with M14 melanoma was 24.2 µM; in the assay on OVCAR-5 ovarian, more than 100 µM; with COLO 205 colon, more than 100 µM; in the assay on DU-145 prostate it was more than 100 µM; with NCI-H226 lung, 9.06 µM; in the assay on MOLT-4 leukemia it was more than 100 µM. This compound also came in with a TGI in the assay on SK-MEL-28 melanoma of more than 100 µM.

Take `Cc1ccc(NC(=O)c2cc3ccccc3c(N=Nc3cc(S(=O)(=O)O)ccc3O)c2O)c(C)c1`: the TGI is 37.4 µM with M14 melanoma; 89.2 µM in the assay on OVCAR-5 ovarian; more than 100 µM with COLO 205 colon; more than 100 µM with DU-145 prostate; more than 100 µM in the assay with NCI-H226 lung; more than 100 µM in the assay with MOLT-4 leukemia. Moreover, the TGI with SK-MEL-28 melanoma was more than 100 µM.

On to `COc1ccc2c(c1)oc(=O)c1cc(OC)ccc12`, for which the GI50 in the assay on M14 melanoma, in the assay on OVCAR-5 ovarian, in the assay on COLO 205 colon, with DU-145 prostate, with NCI-H226 lung and in the assay on MOLT-4 leukemia was more than 100 µM throughout. Moreover, the GI50 in the assay on SK-MEL-28 melanoma was more than 100 µM. For the same compound, the TGI with M14 melanoma, with OVCAR-5 ovarian, in the assay on COLO 205 colon, with DU-145 prostate, in the assay with NCI-H226 lung and with MOLT-4 leukemia was more than 100 µM in each case. The compound further registered a TGI in the assay on SK-MEL-28 melanoma of more than 100 µM.

On to `COc1ccc(Sc2nc3cc(N)cc(N)c3nc2-c2ccccc2)cc1`, for which the GI50 is more than 100 µM in the assay on M14 melanoma; more than 100 µM in the assay with OVCAR-5 ovarian; 19.3 µM with COLO 205 colon; 14.5 µM with DU-145 prostate; 4.19 µM with MOLT-4 leukemia; 4.25 µM in the assay with HL-60(TB) leukemia. Further, the GI50 with SK-MEL-28 melanoma is 24.4 µM. Further, the TGI in the assay on M14 melanoma, with OVCAR-5 ovarian, with COLO 205 colon, in the assay on DU-145 prostate, in the assay with MOLT-4 leukemia and with HL-60(TB) leukemia was more than 100 µM in each case. Besides, in the assay with SK-MEL-28 melanoma, the TGI is more than 100 µM.

With `CC[C@@H](C(=O)[C@H](C)[C@H](O)[C@@H](C)[C@H]1O[C@H]([C@@H](CC)C(=O)N(CC)CC)CC[C@H]1C)C1O[C@]2(C=C[C@@H](O)[C@]3(CC[C@@](C)([C@H]4CC[C@](O)(CC)[C@H](C)O4)O3)O2)[C@H](C)C[C@@H]1C` (some centres not stated), the GI50 in the assay on OVCAR-5 ovarian was 2.85 µM; with COLO 205 colon, 2.5 µM; with DU-145 prostate, 3.91 µM; in the assay with NCI-H226 lung, 2.69 µM; with MOLT-4 leukemia, 2.55 µM; in the assay on HL-60(TB) leukemia, 2.24 µM. The GI50 with SK-MEL-28 melanoma is 4.97 µM. Also, the TGI with OVCAR-5 ovarian came out at 11.1 µM; with COLO 205 colon it was 5.82 µM; with DU-145 prostate, 14.9 µM; in the assay on NCI-H226 lung, 10.9 µM; in the assay on MOLT-4 leukemia, 7.05 µM; in the assay with HL-60(TB) leukemia, 5.13 µM. For the same compound, the TGI in the assay on SK-MEL-28 melanoma came out at 17 µM.

For `COc1ccc(Cn2cc3c(c2-c2ccccc2)CCc2cnoc2-3)cc1OC`, the GI50 is 0.566 µM in the assay with M14 melanoma; 6.2 µM with OVCAR-5 ovarian; 0.55 µM in the assay on COLO 205 colon; 5.75 µM in the assay with NCI-H226 lung; 1.05 µM with MOLT-4 leukemia; 0.299 µM with HL-60(TB) leukemia. In addition, the GI50 with SK-MEL-28 melanoma was 26.3 µM. For the same compound, the TGI with M14 melanoma is more than 100 µM; in the assay with OVCAR-5 ovarian it was more than 100 µM; with COLO 205 colon it was 3.81 µM; in the assay with NCI-H226 lung it was more than 100 µM; in the assay on MOLT-4 leukemia, more than 100 µM; with HL-60(TB) leukemia, 1.69 µM. This compound also gave a TGI in the assay on SK-MEL-28 melanoma of more than 100 µM.

Take `COc1ccc2cc(C(=O)/C=C/c3ccc(N(C)C)cc3)ccc2c1`: the GI50 in the assay with M14 melanoma, in the assay on COLO 205 colon, in the assay with DU-145 prostate, in the assay on MOLT-4 leukemia, with HL-60(TB) leukemia and in the assay with SK-MEL-28 melanoma was more than 100 µM in each case. Moreover, the TGI with M14 melanoma, with COLO 205 colon, in the assay on DU-145 prostate, in the assay on MOLT-4 leukemia, in the assay on HL-60(TB) leukemia and with SK-MEL-28 melanoma was more than 100 µM in each case.

Consider `Cc1cc(Nc2ncc3c(n2)N(C)C(=O)N(c2cc(NC(=O)c4cccc(C(F)(F)F)c4)ccc2C)C3)n(C)n1`, for which the GI50 with M14 melanoma is less than 0.01 µM; in the assay with OVCAR-5 ovarian, 0.0539 µM; in the assay with COLO 205 colon it was 0.019 µM; in the assay on NCI-H226 lung, 0.0387 µM; in the assay with MOLT-4 leukemia, 0.135 µM; in the assay on HL-60(TB) leukemia, 0.0365 µM. Besides, the GI50 in the assay with SK-MEL-28 melanoma is 0.02 µM. The TGI in the assay with M14 melanoma is 0.096 µM; in the assay with COLO 205 colon it was 0.0368 µM; in the assay with NCI-H226 lung it was more than 100 µM; with MOLT-4 leukemia, more than 46.4 µM; in the assay on SK-MEL-28 melanoma, 0.15 µM.

In the case of `N#Cc1c(N)n2c(nc1=Nc1ccc(Cl)cc1)sc1cc(Cl)ccc12`, the GI50 was 6.59 µM and 5.9 µM with M14 melanoma; more than 100 µM in the assay with DU-145 prostate; 6.71 µM and 2.39 µM with NCI-H226 lung; 4.42 µM with MOLT-4 leukemia; 5.74 µM and 2.8 µM in the assay with SK-MEL-28 melanoma. For the same compound, the TGI in the assay on M14 melanoma was more than 100 µM; with DU-145 prostate, more than 100 µM; with NCI-H226 lung, 9 µM; in the assay with HL-60(TB) leukemia, more than 100 µM; in the assay on SK-MEL-28 melanoma, more than 100 µM.

In the case of `N#C[Se]CCN1C(=O)C2C(C1=O)[C@H]1C=C[C@@H]2S1` (some centres not stated), the GI50 in the assay on M14 melanoma is 1.54 µM; in the assay on OVCAR-5 ovarian, 2.56 µM; in the assay on COLO 205 colon, 2.45 µM; in the assay on MOLT-4 leukemia it was 1.31 µM; with SK-MEL-28 melanoma it was 1.92 µM. Also, the TGI worked out at 3.62 µM in the assay on M14 melanoma; 6.4 µM with OVCAR-5 ovarian; 6.42 µM in the assay with COLO 205 colon; 8.06 µM in the assay with MOLT-4 leukemia; 5.02 µM in the assay on SK-MEL-28 melanoma.

As for `O=c1[nH]c(=O)c2cc3cc(C4CC(O)C(CO)O4)ccc3cc2[nH]1` (configuration not stated), the GI50 in the assay with M14 melanoma, in the assay with OVCAR-5 ovarian, in the assay on COLO 205 colon, in the assay on DU-145 prostate, with NCI-H226 lung and in the assay with MOLT-4 leukemia was more than 100 µM in each case. Moreover, the GI50 in the assay on SK-MEL-28 melanoma is more than 100 µM. Besides, the TGI in the assay with M14 melanoma, with OVCAR-5 ovarian, in the assay on COLO 205 colon, with DU-145 prostate, with NCI-H226 lung and in the assay on MOLT-4 leukemia was more than 100 µM each time. For the same compound, in the assay on SK-MEL-28 melanoma, the TGI was more than 100 µM.

In the case of `CCOC(=O)C(N=C(c1ccccc1)c1ccccc1)N(C(=O)OC(C)(C)C)C(=O)OC(C)(C)C` (configuration not stated), the TGI in the assay with OVCAR-5 ovarian, in the assay with COLO 205 colon, with NCI-H226 lung, in the assay with MOLT-4 leukemia and in the assay with SK-MEL-28 melanoma was more than 100 µM throughout.

With `CC(N)(/C=C/c1ccccc1)C(=O)O` (configuration not stated), the TGI with M14 melanoma, in the assay on OVCAR-5 ovarian, in the assay with COLO 205 colon, with NCI-H226 lung, in the assay on MOLT-4 leukemia and in the assay on HL-60(TB) leukemia was more than 100 µM throughout. The compound also came in with a TGI with SK-MEL-28 melanoma of more than 100 µM.

Turning to `NC(N)=NC(N)=Nc1cnccn1`, the TGI in the assay on M14 melanoma, in the assay on COLO 205 colon, in the assay with DU-145 prostate, in the assay on NCI-H226 lung, in the assay with MOLT-4 leukemia and in the assay with HL-60(TB) leukemia was more than 100 µM throughout. The compound also showed a TGI with SK-MEL-28 melanoma of more than 100 µM.
